Reference: paper PMC3189943, “Catalytic Properties of the Isolated Diaphorase Fragment of the NAD^+-Reducing [NiFe]-Hydrogenase from Ralstonia eutropha” (PLoS ONE, 2011)
Where two headings read alike, the source gives them in different places. Blank lines part the entries; values can stand above or below the molecule they belong to.

How the values were obtained:
[1] = biological target: T1, HoxFU (diaphorase moiety of the NAD+-reducing soluble [NiFe]-hydrogenase, SH) (Cupriavidus necator, UniProt P22317); test: protein film electrochemistry, inhibition of NAD+ reduction current; type: biochemical; conditions: -412 mV, 0.14 mM NAD+, 50 mM Tris-HCl pH 8.0; enzyme adsorbed on graphite electrode
T1 construct: gene hoxF; HoxFU heterodimer without HoxHY and HoxI; N-terminal Strep-tag II on HoxF kept; plasmid pGE553, homologous overproduction in R. eutropha HF424; Strep-Tactin plus size exclusion; apparent 110 kDa; HoxF 67 kDa, HoxU 27 and 23 kDa (both with original termini, unidentified modification); FMN and Fe-S clusters; with NAD-reducing hydrogenase HoxS subunit gamma
T1 sequence (P22317 whole entry): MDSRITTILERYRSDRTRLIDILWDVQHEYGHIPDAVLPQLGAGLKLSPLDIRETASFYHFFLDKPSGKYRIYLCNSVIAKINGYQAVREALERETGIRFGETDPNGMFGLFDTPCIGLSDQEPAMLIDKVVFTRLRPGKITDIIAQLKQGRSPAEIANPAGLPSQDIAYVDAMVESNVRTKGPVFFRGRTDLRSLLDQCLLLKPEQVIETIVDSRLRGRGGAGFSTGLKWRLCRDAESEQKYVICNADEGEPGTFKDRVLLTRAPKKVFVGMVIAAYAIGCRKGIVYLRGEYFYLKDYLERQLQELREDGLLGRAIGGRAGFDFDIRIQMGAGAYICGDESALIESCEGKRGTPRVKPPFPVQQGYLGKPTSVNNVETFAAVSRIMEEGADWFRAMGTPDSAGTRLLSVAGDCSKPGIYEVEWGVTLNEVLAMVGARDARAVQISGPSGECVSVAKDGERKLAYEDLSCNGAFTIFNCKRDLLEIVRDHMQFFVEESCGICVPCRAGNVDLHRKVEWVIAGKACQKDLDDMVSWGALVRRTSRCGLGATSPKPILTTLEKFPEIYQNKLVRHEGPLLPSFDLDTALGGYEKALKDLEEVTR
T1 sequence (P22318 2-234 partner): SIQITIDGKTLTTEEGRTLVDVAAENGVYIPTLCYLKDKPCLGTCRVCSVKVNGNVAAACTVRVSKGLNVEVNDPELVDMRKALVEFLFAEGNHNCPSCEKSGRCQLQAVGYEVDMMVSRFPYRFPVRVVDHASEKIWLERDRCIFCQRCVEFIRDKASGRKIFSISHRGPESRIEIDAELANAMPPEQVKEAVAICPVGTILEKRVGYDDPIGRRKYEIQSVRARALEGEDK

[2] = biological target: T1, HoxFU (diaphorase moiety of the NAD+-reducing soluble [NiFe]-hydrogenase, SH); test: protein film electrochemistry, Dixon plot; type: biochemical

Compound: Nc1ncnc2c1ncn2[C@@H]1O[C@H](COP(=O)(O)OP(=O)(O)OC[C@H]2OC(O)[C@H](O)[C@@H]2O)[C@@H](O)[C@H]1O (stereo partly drawn) [ADP-ribose]
protein film electrochemistry, inhibition of NAD+ reduction current [1]: effect of injections of ADP-ribose on NAD^+ reduction by HoxFU, confirming that ADP-ribose is an inhibitor

Ki ([2]; read-out: K I(NADH)): 200 to 300 µM
Compound: NC(=O)C1=CN([C@@H]2O[C@H](COP(=O)(O)OP(=O)(O)OC[C@H]3O[C@@H](n4cnc5c(N)ncnc54)[C@H](O)[C@@H]3O)[C@@H](O)[C@H]2O)C=CC1 [NADH]

Ki ([2]; read-out: K I(NAD+)): 100 to 300 µM
Compound: NC(=O)c1ccc[n+]([C@@H]2O[C@H](COP(=O)(O)OP(=O)(O)OC[C@H]3O[C@@H](n4cnc5c(N)ncnc54)[C@H](O)[C@@H]3O)[C@@H](O)[C@H]2O)c1 [NAD^+]
